“Also recorded” adds a separate entry of the source.
Legend:
[1] = test system: chronic lymphocytic leukemia cells; test: Chemokinesis: migration of chronic lymphocytic leukemia cells through a membrane, no etodolac or chemokine in lower well; assay type: cell-based, human; settings: overnight incubation at 200 μmol concentration, versus cells without etodolac; FIG. 1
Procedure: Cell migration was measured in a 24-well modified Boyden chamber (Transwell, Corning-Costar, N.Y.). The recombinant human IP-10 chemokine (R&D Systems, McKinley Place, Nebr.) was diluted in RPMI-1640 medium at 200 ng/ml, and used to evaluate the chemotactic properties of lymphocytes from B-CLL patients. Polycarbonate membranes with pore size of 3 μm were used. A total of […] of chemokines or control medium was added to the bottom wells, and […] of 2 to 5.0×10^6 cells/ml cells resuspended in RPMI-1640 were added to the top wells. […] The membranes were then removed, and the cells present on the bottom well were quantified by flow cytometry. For cell quantification, a fixed acquisition time of 30 seconds was used per sample, and beads were run during each experiment to ensure a reproducible acquisition. All assays were performed in triplicate. B-Chronic lymphocytic leukemia (B-CLL) cells were pre-incubated in the presence of various concentrations of etodolac for 16 hours, prior to loading in the upper part of a modified Boyden chamber with pore size of 3 μm. The lower reservoir contained either medium alone, or the CXCR3-binding chemokine IFN-inducible protein 10 (IP-10, 200 ng/ml). After 2 hours of incubation, the cells that traveled through the polycarbonate membrane were enumerated by flow cytometry. […] Control cells were incubated in the same medium without etodolac. The cells were then added to the upper wells of chemotaxis chambers divided by a 5 to 8 micron membrane. No etodolac was present in the lower portion of each well. FIG. 1 provides a graph of the number of chronic lymphocytic leukemia cells crossing through the membranes into the lower well.

B-CLL cells [2] = settings: for chemotactic response of B-CLL cells to IP-10: overnight incubation at 12.5 μM to 500 μM, B-CLL patients n=4, FIG. 3
[3] = test system: peripheral blood leukocytes; test: Peripheral blood leukocyte counts in normal mice after etodolac by gastric lavage; assay type: in vivo; settings: blood at 4 hr, 24 hr, 158 hr and 14 days, FIG. 5
Procedure: Normal mice were given 25 mg/kg etodolac or 100 mg/kg etodolac by gastric lavage. Control mice received no etodolac. Blood was drawn from each mouse at 4 hr, 24 hr, 158 hr and 14 days after etodolac administration and peripheral blood leukocyte counts were done.

[4] = test system: peripheral blood lymphocytes; settings: for number of peripheral blood lymphocytes migrating through the membrane to IP-10: overnight incubation at 0 μM to 500 μM, FIG. 4
[5] = test system: peripheral blood lymphocytes; test: Chemokinesis: migration of peripheral blood lymphocytes through a membrane, no etodolac in lower well; assay type: cell-based, human; settings: overnight incubation at 250 μM, versus cells without etodolac; FIG. 2
Procedure: Cell migration was measured in a 24-well modified Boyden chamber (Transwell, Corning-Costar, N.Y.). The recombinant human IP-10 chemokine (R&D Systems, McKinley Place, Nebr.) was diluted in RPMI-1640 medium at 200 ng/ml, and used to evaluate the chemotactic properties of lymphocytes from B-CLL patients. Polycarbonate membranes with pore size of 3 μm were used. A total of […] of chemokines or control medium was added to the bottom wells, and […] of 2 to 5.0×10^6 cells/ml cells resuspended in RPMI-1640 were added to the top wells. […] The membranes were then removed, and the cells present on the bottom well were quantified by flow cytometry. For cell quantification, a fixed acquisition time of 30 seconds was used per sample, and beads were run during each experiment to ensure a reproducible acquisition. All assays were performed in triplicate. Peripheral blood lymphocytes were incubated overnight in medium containing a racemic mixture of etodolac, the R-enantiomer of etodolac or the S-enantiomer of etodolac at 250 μM concentration. Control cells were incubated in the same medium without etodolac. The cells were then added to the upper wells of chemotaxis chambers divided by a 5 to 8 micron membrane. No etodolac was present in the lower portion of each well. FIG. 2 provides a graph of the number of peripheral blood lymphocytes crossing through the membranes into the lower well.

B-CLL cells [6] = test: Ex vivo viability (erythrosin B) of B-CLL cells isolated from patients before and after etodolac challenge; assay type: in vivo, human; settings: for % Increased cell death: after versus before etodolac
Excerpt: Written informed consent was obtained to procure peripheral blood from all patients and with normal healthy volunteers. Patients had to have B-CLL according to National Cancer Institute (NCI) criteria of any Rai stage. Criteria for requiring therapy were as follows: disease-related symptoms, anemia and/or thrombocytopenia, bulky lymphadenopathy, and/or clinically relevant splenomegaly. Mononuclear cells were isolated by gradient centrifugation through Ficoll-Paque. […] At the indicated times, viability assays were performed by erythrosin B dye exclusion. To determine if etodolac could reduce B-CLL survival in vivo, six B-CLL patients were enrolled in a first step challenge assay for etodolac sensitivity. Each patient received one 400 mg etodolac tablet, and a second tablet 12 hours later. B-CLL cells were isolated just before the first tablet, and 12 hours after the second. B-CLL cells recovered from patients were then cultured with 20% autologous plasma and apoptosis rates were measured, either before or after etodolac treatment. […] The five etodolac-sensitive patients were then enrolled in a second-step clinical trial in which they took etodolac for one month (400 mg bid). […] After 72 hour of incubation, viability assays were performed by erythrosin B staining. Numbers indicate the % of viable cells.

[7] = test system: circulating lymphocyte counts; test: Clinical trial of etodolac in B-CLL patients: circulating lymphocyte counts, lymphadenopathy; assay type: in vivo, human
Procedure: To determine if etodolac could reduce B-CLL survival in vivo, six B-CLL patients were enrolled in a first step challenge assay for etodolac sensitivity. Each patient received one 400 mg etodolac tablet, and a second tablet 12 hours later. B-CLL cells were isolated just before the first tablet, and 12 hours after the second. B-CLL cells recovered from patients were then cultured with 20% autologous plasma and apoptosis rates were measured, either before or after etodolac treatment. […] The five etodolac-sensitive patients were then enrolled in a second-step clinical trial in which they took etodolac for one month (400 mg bid).

[8] = test system: Chronic lymphocytic leukemia (B-CLL) cells; test: B-CLL colony morphology, aggregation and viability by light microscopy; assay type: cell-based, human; settings: 24 hours
Procedure: Chronic lymphocytic leukemia (B-CLL) cells were incubated for 24 hr in medium containing the R-enantiomer of etodolac at 0.0 μM, 100 μM and 250 μM. concentrations. The cell morphology was observed under light microscopy. Control cells incubated without etodolac grew in large, flat colonies (FIG. 6A). However, after incubation for 24 hours with either 100 μM or 250 μM.

[9] = test system: Colon cancer cells (HCT-116); test: Actin filament staining (phalloidin) and cell shape in colon cancer cells; assay type: cell-based; settings: 500 μM, 5 hours; FIG. 7B
Procedure: Colon cancer cells (HCT-116) were incubated for 5 hours with either no etodolac (control cells) or 500 μM. R-etodolac (test cells). The cells were then fixed and the intracellular actin filaments were stained with phalloidan conjugated to a fluorogenic dye (Alexa-green). The control cells (FIG. 7A) had actin filaments arranged in rigid structures (stress fibers) that confer the “stretched” shape often seen in normal cells.

CCc1cccc2c3c([nH]c12)C(CC)(CC(=O)O)OCC3 (racemic) [etodolac]
number of chronic lymphocytic leukemia cells crossing through the membranes into the lower well [1]: more cells migrated through the membrane | expression of the CXCR receptor, as assessed by antibody staining (B-CLL cells [2]; B-CLL cells, data not shown): not due to increased expression of the CXCR receptor | concentration at which chemotaxis of B-CLL cells decreased, due to a loss of cell viability (B-CLL cells [2]; human, 16 h): ≥ 500 µM | chemotactic response of B-CLL cells to IP-10 (B-CLL cells [2]): increased the chemotactic response | number of peripheral blood leukocytes ([3]; 25 mg/kg by gastric lavage): reduced | number of peripheral blood leukocytes ([3]; 100 mg/kg by gastric lavage): reduced | etodolac concentration up to which the number of migrating peripheral blood lymphocytes increased ([4]; IP-10 in lower well): 100 µM | concentration at which chemotaxis of peripheral blood lymphocytes decreased, due to a loss of cell viability ([4]; human): ≥ 250 µM | number of peripheral blood lymphocytes migrating through the membrane to IP-10 [4]: increased with etodolac concentration | number of peripheral blood lymphocytes crossing through the membranes into the lower well [5]: more cells migrated through the membrane | % Increased cell death (B-CLL cells [6]; patient #1): 13% | % Increased cell death (B-CLL cells [6]; patient #2): 57% | % Increased cell death (B-CLL cells [6]; patient #3): 69% | % Increased cell death (B-CLL cells [6]; patient #4): 0% | % Increased cell death (B-CLL cells [6]; patient #5): 34% | % Increased cell death (B-CLL cells [6]; patient #6): 41% | patients whose cells displayed more ex vivo spontaneous apoptosis after in vivo etodolac challenge than before (B-CLL cells [6]; six B-CLL patients, two 400 mg tablets 12 hours apart): 5 out of 6 | changes in lymphadenopathy ([7]; B-CLL patients on etodolac therapy): did not have clinically obvious changes in lymphadenopathy | B-CLL counts when etodolac treatment was interrupted ([7]; after one month of 400 mg bid): rebounded to pre-treatment levels | drop of circulating lymphocyte counts ([7]; two retreated B-CLL patients, over one month, results not shown): ~50%

CCc1cccc2c3c([nH]c12)[C@@](CC)(CC(=O)O)OCC3 [R-etodolac]
number of chronic lymphocytic leukemia cells crossing through the membranes into the lower well [1]: more cells migrated through the membrane | chemotactic response of B-CLL cells to IP-10 (B-CLL cells [2]): enhanced B-CLL chemotaxis | number of peripheral blood lymphocytes migrating through the membrane to IP-10 [4]: less cell migration than did the racemic mixture | number of peripheral blood lymphocytes crossing through the membranes into the lower well [5]: did not induce substantial chemokinesis | total number of B-CLL cells or their viability ([8]; 100 μM or 250 μM): No effect | B-CLL cell movement and colony morphology ([8]; 100 μM, FIG. 6B): the cells migrated toward each other, the diameter of the colonies was reduced, and multiple layers of cells were present in the colonies | B-CLL cell movement and colony morphology ([8]; 250 μM, FIG. 6C): the cells migrated toward each other and the diameter of the colonies was reduced; also recorded: the cells migrated even more toward each other, the diameter of the colonies was even further reduced and even more layers of cells were present in the colonies | actin filaments and cell shape of HCT-116 cells [9]: no conventional stress fibers are observed and the cells assume a rounded shape

CCc1cccc2c3c([nH]c12)[C@](CC)(CC(=O)O)OCC3 [S-etodolac]
number of chronic lymphocytic leukemia cells crossing through the membranes into the lower well [1]: more cells migrated through the membrane | chemotactic response of B-CLL cells to IP-10 (B-CLL cells [2]): enhanced B-CLL chemotaxis | number of peripheral blood lymphocytes migrating through the membrane to IP-10 [4]: less cell migration than did the racemic mixture | number of peripheral blood lymphocytes crossing through the membranes into the lower well [5]: did not induce substantial chemokinesis
